Results on 19 compounds are retold here after PubChem BioAssay (NCI).

Assay in all cases: NCI anticancer screen, dose series, 48 h
Experiment [1] deals with 786-0 renal.
Experiment [2] concerns OVCAR-4 ovarian.
The subject of experiment [3] is RPMI-8226 leukemia.
The subject of experiment [4] is SK-MEL-2 melanoma.
The subject of experiment [5] is SK-OV-3 ovarian.
The subject of experiment [6] is SNB-19 CNS.
The subject of experiment [7] is SNB-75 CNS.
Experiment [8] concerns SW-620 colon.
In experiment [9] the test system is UACC-257 melanoma.
In experiment [10] the test system is UACC-62 melanoma.

“And” between values parts separate entries of the source, which are not always exact repeats. Identical values can stand only once.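 Cells were grown in 96-well plates and exposed to each compound for 48 hours at five concentrations; endpoints were interpolated linearly between bracketing concentrations, or set to the highest concentration if not reached. GI50: concentration for 50% inhibition of growth. TGI: total growth inhibition.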 Where only a bound is given, the exact number is not on record here.

Consider `Cc1ccc(C(=O)NC2CC2)cc1-c1ccc2[nH]ncc2c1`, for which the GI50 in experiment [1], in experiment [2], in experiment [3], in experiment [4], in experiment [5] and in experiment [6] was above 25 µM throughout. Further, the GI50 in experiment [7] was above 13 µM; in experiment [8], above 25 µM; in [9] it was above 25 µM; in experiment [10] it was above 25 µM. The TGI in experiment [1], in experiment [2], in [3], in [4], in experiment [5] and in [6] was above 25 µM throughout. Further, the TGI in [7], in [8], in [9] and in experiment [10] was above 25 µM in each case.

Consider `C[C@]12C[C@H](O)[C@H]3[C@@H](CCC4=CC(=O)CC[C@@]43C)[C@@H]1CC[C@@H]2c1csc(-c2ccccc2)n1`, for which the TGI in experiment [1] is above 100 µM; in experiment [2], above 73.8 µM; in [3], above 100 µM; in experiment [4], above 90.5 µM; in experiment [5], above 100 µM; in experiment [6], above 100 µM. Moreover, the TGI in experiment [7] is above 82.7 µM; in experiment [8] it was above 100 µM; in [9], above 100 µM; in experiment [10], above 100 µM.

Take `C=C1CCC2C3(C)COC(c4ccccc4Cl)OC3CCC2(C)C1/C=C/C1=CCOC1=O` (centres undefined): the GI50 was above 100 µM in experiment [1]; 4.47 µM in [2]; 1.16 µM in experiment [3]; 77.7 µM in experiment [4]; above 100 µM in experiment [5]; above 100 µM in experiment [6]. Further, the GI50 in experiment [7] was above 100 µM; in experiment [8], 25 µM; in experiment [9], 9.09 µM; in [10], 11.2 µM. Further, the TGI is above 100 µM in [1]; above 100 µM in experiment [2]; 9.97 µM in experiment [3]; above 100 µM in experiment [4]; above 100 µM in [5]; above 100 µM in [6]. The TGI in experiment [7], in experiment [8], in experiment [9] and in [10] was above 100 µM each time.

Take `COc1cc(/C=N/N=C(\N)NO)c([N+](=O)[O-])cc1OC`: the TGI in experiment [1], in experiment [2], in experiment [3], in [4], in experiment [5] and in [6] was above 100 µM throughout. Further, the TGI in experiment [7] was 78.9 µM; in experiment [8] it was above 100 µM; in experiment [9] it was above 100 µM; in [10] it was 59 µM.

As to `CC1=C(C)SC(=C2Sc3c(n(C)c(=O)n(C)c3=O)S2)S1`, the TGI in experiment [1] was 34.8 µM; in experiment [2] it was 58.3 µM; in experiment [3] it was above 100 µM; in experiment [4], 79.1 µM; in experiment [5] it was 33.5 µM; in [6] it was above 100 µM. In addition, the TGI in [7] was 52.3 µM; in experiment [8], above 100 µM; in experiment [9], above 100 µM; in [10], above 100 µM.

Consider `COc1cc(C(=O)c2cocc2C(=O)c2ccc3c(c2)OCO3)cc(OC)c1OC`, for which the TGI in experiment [1] was 39.7 µM; in experiment [2], above 54.3 µM; in experiment [3] it was 32.3 µM; in experiment [4], above 41.7 µM; in experiment [5] it was 47.3 µM; in [6], 35.3 µM. Besides, the TGI was 10.4 µM in [7], above 57.8 µM in experiment [8], above 45.7 µM in experiment [9] and above 47.3 µM in experiment [10].

As to `NC(=O)NN=C1Cc2ccccc2C1`, the TGI in [1], in experiment [2], in [3], in [4], in experiment [5] and in experiment [6] was above 100 µM throughout. Besides, the TGI in experiment [7], in [8], in experiment [9] and in experiment [10] was above 100 µM in each case.

`COC(=O)N[C@H]1CCc2c(Cl)c(OC)c(OC)c(OC)c2-c2ccc(SC)c(=O)cc21`: the GI50 in experiment [1] was below 0.01 µM; in experiment [2] it was 0.0813 µM; in experiment [3] it was below 0.01 µM; in [4] it was 5.89 µM; in experiment [5], below 0.01 µM; in experiment [6], below 0.01 µM. In addition, the GI50 was below 0.01 µM in experiment [7], below 0.01 µM in [8], 24.9 µM in experiment [9] and below 0.01 µM in [10]. Also, the TGI in experiment [1] was above 36.9 µM; in experiment [2], above 100 µM; in experiment [3], above 42.8 µM; in experiment [4], above 70.3 µM; in experiment [5], above 100 µM; in experiment [6] it was above 100 µM. The TGI in experiment [7] is above 81.2 µM; in experiment [8] it was above 100 µM; in [9], above 100 µM; in [10] it was 20.1 µM.

`CC1(C)CCC[C@]2(C)c3ccccc3C(=O)CC12` (some centres undefined): the GI50 in experiment [1] was 64.9 µM; in experiment [2], above 100 µM; in experiment [3], 29.7 µM; in experiment [4], 22 µM; in [5], above 100 µM; in experiment [6], 49.6 µM. The GI50 in experiment [7] was 34.6 µM; in [8] it was 31 µM; in experiment [9], 32.5 µM; in [10], 18.2 µM. Further, the TGI in experiment [1] is above 100 µM; in [2], above 100 µM; in experiment [3], above 100 µM; in [4], 61.3 µM; in experiment [5] it was above 100 µM; in [6], above 100 µM. Moreover, the TGI in experiment [7], in experiment [8], in experiment [9] and in experiment [10] was above 100 µM in each case.

Consider `CCCCN(CCCC)CC(C(C)=O)C(c1ccccc1)c1c(O)c2ccccc2oc1=O` (centres undefined), for which the TGI in [1], in experiment [2], in experiment [3], in experiment [4], in [5] and in experiment [6] was above 100 µM throughout. The TGI in experiment [7] is 76.3 µM; in experiment [8] it was above 100 µM; in experiment [9], above 100 µM; in experiment [10], above 100 µM.

Consider `CC(=O)NN1C(=O)C(Cc2ccccc2)c2ccccc21` (centres undefined), for which the TGI in experiment [1], in experiment [2], in [3], in [4], in [5] and in experiment [6] was above 100 µM each time. Also, the TGI in [7], in [8], in experiment [9] and in experiment [10] was above 100 µM each time.

For the compound `CS(=O)(=O)N(c1cc(-c2ccc3ncnc(Nc4ccc(F)c(Cl)c4)c3c2)cnc1Cl)S(C)(=O)=O`, the GI50 in experiment [1] was 1.58 µM; in experiment [2] it was 2.33 µM; in experiment [3], 0.826 µM; in experiment [4], 1.16 µM; in experiment [5], 0.6 µM; in [6] it was 0.897 µM. The GI50 was 0.0739 µM in experiment [7], 1.71 µM in experiment [8], 1.11 µM in [9] and 0.49 µM in experiment [10]. The TGI in [1] was above 26.4 µM; in experiment [2], 19.4 µM; in [3], 3.98 µM; in [4] it was 4.01 µM; in experiment [5] it was 4.31 µM; in [6], 9.9 µM. In addition, the TGI in [7] was 0.698 µM; in [8], above 38.4 µM; in experiment [9], 14.5 µM; in experiment [10], 2.93 µM.

Turning to `COc1ccc2nc3cc(Cl)ccc3c(Nc3cc(CN4CCCC4)c(O)c(CN4CCCC4)c3)c2n1`, the GI50 in experiment [1] was 1.87 µM; in experiment [2], 1.12 µM; in [3], 2.1 µM; in experiment [4], 1.73 µM; in [5] it was 2.92 µM; in experiment [6] it was 1.84 µM. The GI50 is 1.38 µM in experiment [7], 0.629 µM in experiment [8], 1.71 µM in [9] and 1.74 µM in [10]. Moreover, the TGI in [1] was 11.4 µM; in [2] it was 4.72 µM; in experiment [3] it was 5.7 µM; in [4], 3.26 µM; in [5], 15.5 µM; in [6], 10.7 µM. Besides, the TGI in experiment [7] came out at 2.7 µM; in experiment [8], 4.95 µM; in experiment [9], 3.26 µM; in [10] it was 3.56 µM.

`COc1ccc(-c2cc(=O)c3c(O)c(OC)c(OC)c(OC)c3o2)cc1`: the TGI in experiment [1] was above 100 µM; in [2] it was above 100 µM; in experiment [3], above 100 µM; in experiment [4], above 81.3 µM; in experiment [5] it was above 100 µM; in experiment [6], above 100 µM. Moreover, the TGI in experiment [7] was above 56.3 µM; in [8], above 100 µM; in experiment [9], above 100 µM; in experiment [10], above 100 µM.

In the case of `CCCCn1c(=O)c(/C=C/C(=O)/C=C/c2cc3ccccc3n(CCCC)c2=O)cc2ccccc21`, the GI50 is 1.35 µM in experiment [1]; 2.78 µM in [2]; 0.317 µM in [3]; 2.09 µM in experiment [4]; 3.59 µM in experiment [5]; 1.63 µM in [6]. Further, the GI50 is 2.8 µM in experiment [7], 0.859 µM in experiment [8], 1.61 µM in experiment [9] and 1.61 µM in [10]. Besides, the TGI in [1] was found to be 3.08 µM; in experiment [2] it was 9.12 µM; in experiment [3], 0.931 µM; in experiment [4], 5.7 µM; in experiment [5] it was 9.35 µM; in experiment [6], 3.24 µM. Also, the TGI in experiment [7] is 8.12 µM; in experiment [8] it was 2.84 µM; in experiment [9], 3 µM; in experiment [10], 3.06 µM.

For `O=C1NC2C(O)CCCCC2C12CCCCC2` (centres undefined), the TGI in experiment [1], in experiment [2], in experiment [3], in [4], in experiment [5] and in experiment [6] was above 100 µM throughout. Besides, the TGI in experiment [7], in experiment [8], in [9] and in experiment [10] was above 100 µM throughout.

Take `CCC1=C(CC2NCCc3ccccc32)CC2c3cc(OC)c(OC)cc3CCN2C1` (centres undefined): the GI50 in experiment [1] is 4.04 µM; in [2], 3.87 µM; in experiment [3], 4.17 µM; in experiment [4], 4.64 µM; in experiment [5] it was 4.07 µM; in experiment [6] it was 3.6 µM. The GI50 in experiment [7] was 4.09 µM; in experiment [8], 3.62 µM; in experiment [9], 10 µM; in [10] it was 13.9 µM. Besides, the TGI in [1] was 17.1 µM and 2.9 µM; in [3], 15.9 µM and 3.12 µM; in experiment [4], 16.6 µM and 2.64 µM; in experiment [5], 25.6 µM and 17.1 µM; in experiment [6], 13.7 µM and 11.9 µM; in [7], 13.8 µM and 2.47 µM. Moreover, the TGI in experiment [8] was 13.4 µM and 6.81 µM; in experiment [9] it was 24.5 µM and 9.49 µM; in experiment [10], 27.5 µM and 6.66 µM.

For the compound `O=C1Nc2cc(F)ccc2C1=O`, the TGI in [1], in [2], in [3], in [4], in experiment [5] and in experiment [6] was above 100 µM each time. For the same compound, the TGI in experiment [7], in experiment [8], in experiment [9] and in experiment [10] was above 100 µM in each case.

With `C[CH2][Sn]([CH2]C)([O]C(=O)c1ccc(F)cc1)[O]C(=O)c1ccc(F)cc1`, the GI50 was 18.8 µM in [1]; 52.4 µM in experiment [2]; 20.1 µM in experiment [3]; 12.8 µM in experiment [4]; above 100 µM in experiment [5]; 16.7 µM in [6]. Moreover, the GI50 in [7] was 17.9 µM; in experiment [8] it was 22 µM; in [9], 19.7 µM; in [10], 17.7 µM. In addition, the TGI in experiment [1] was 35.1 µM; in [2] it was above 100 µM; in experiment [3], 53.9 µM; in [4], 17.5 µM; in experiment [5], above 100 µM; in experiment [6] it was 30.5 µM. Besides, the TGI came out at 33.5 µM in experiment [7], 46.7 µM in [8], 41 µM in [9] and 36.6 µM in [10].
